The values below come from EPA's ToxValDB 9.5 (doi:10.2903/j.efsa.2006.87r).

For data set [1], the system named is Bird. The conditions noted are these: for LD50: acute, oral, unspecified, mortality.
For data set [2], the system named is Bibionidae. As to conditions: chronic/long-term; duration: 28 days.
Data set [3] concerns Lepomis macrochirus. As to conditions: acute; duration: 96 hours; mortality.
Data set [4] deals with Oncorhynchus mykiss. The conditions noted are these: chronic/long-term; duration: 28 days; growth.
In data set [5] the test system is Daphnia magna. As to conditions: chronic/long-term; duration: 21 days; reproduction.
Data set [6] relates to Tagia sp.
The subject of data set [7] is Aphidius rhopalosiphi. The conditions noted are these: not reported.
Data set [8] deals with Apis mellifera. As to conditions: acute; duration: 48 hours; oral; unspecified; mortality.
The subject of data set [9] is Rattus norvegicus.
The test system of data set [10] is Canidae. As to conditions: chronic; duration: 1 years; oral; Dog Other.
For data set [11], the system named is Oryctolagus sp. As to conditions: reproduction developmental; mortality.

Values after ≈ are worked out from the molar mass of the structure shown.

The NOAEL is the highest tested level that showed no adverse finding.

Compound `COC(=O)[C@@H](C)Oc1ccc(Oc2ncc(C(F)(F)F)cc2Cl)cc1` [Haloxyfop-P-methyl] displayed an LD50 in [1] of 1160 mg/kg-day. For the same compound, the NOEC in data set [2] is 2.5 mg/L; in data set [4] it was 0.0052 mg/L; in data set [5], 0.509 mg/L. In addition, in data set [3], the LC50 turned out to be 0.0884 µg/mL (≈ 0.235 µM).
The compound `C[C@@H](Oc1ccc(Oc2ncc(C(F)(F)F)cc2Cl)cc1)C(=O)O` [Haloxyfop-P] returned an LC50 in data set [6] (acute, duration: 14 days, mortality) of 830 mg/kg and an LC50 (acute, oral, diet, mortality) of over 1110 mg/kg-day. In addition, the NOEC in [6] (chronic/long-term, reproduction) was 810 g/ha; in [1] (reproductive), 17.1 mg/kg-day. Further, the LD50 is 414 mg/kg in data set [1]; over 100 µg/piece in data set [8]; at least 300 mg/kg in [9] (acute, oral, mortality). Moreover, the LEL in [7] (mortality) worked out at 108 g/ha; in data set [7] (reproduction), 5.7 g/ha. The no observed adverse effect level (NOAEL) in data set [9] (chronic, duration: 2 years, organ weight) was 0.065 mg/kg-day; the no-observed-adverse-effect level (NOAEL) in data set [9] (reproduction developmental, body weight) is 0.065 mg/kg-day; the NOAEL (chronic/long-term) is 1 mg/kg-day; the NOAEL in data set [10] was 0.5 mg/kg-day; the NOAEL in data set [11] is 7.5 mg/kg-day.
